From patent US12552796B2, “EED inhibitor, and preparation method therefor and use thereof” (SHANGHAITECH UNIVERSITY, priority 2019, dated 2026)
Like-named read-outs stand apart in the source and are kept apart here.

What was measured:
[1] = tested on: cellular H3K27 methylation; test: Cellular H3K27 methylation assay (Western blot of H3K27me3 in HeLa cells); assay type: cell-based; conditions: Homo sapiens, 72 h, read-out: PD IC50
Karpas422 cells = test: Cell proliferation assay, Karpas422; assay type: cell-based; conditions: Homo sapiens
Method: (§1) Human B-cell non-Hodgkin's lymphoma cells WSU-DLCL2, Karpas422 and Pfeiffer were cultured in cell culture flasks in a sterile incubator with 95% relative humidity and 5% CO2 at 37° C. The medium was RPMI-1640 (Gibco, product No. 31800022) containing 15% fetal bovine serum (FBS, Gibco, product No. 10099141) and 0.1% penicillin/streptomycin solution (P/S). In order to assay the effects of compounds on cell proliferation, cells in exponential growth phase were seeded into a 12-well plate (Nunc, product No. 150628) with 1 mL of medium per well, wherein WSU-DLCL2 and Karpas422 were seeded at a density of 1×10^5 cells/well, and Pfeiffer was seeded at a density of 2×10^5 cells/well. At the same time, different concentrations of compounds were added to the wells that had seeded with cells (6 concentrations were set for each compound at 3-fold serial dilution), and the final concentration of DMSO was 0.1%. After that, the number of viable cells was determined by Vi-CELL (Beckman Coulter) for WSU-DLCL2 and Pfeiffer every 3 days, and for Karpas422 on days 4, 7, and 11, respectively. The cells counted each time were seeded into a new 12-well plate at the same density, and supplemented with fresh medium to 1 mL. Different concentrations of compounds were added at the same time. WSU-DLCL2 and Pfeiffer were cultured to the 9th day, and Karpas422 was cultured to the 14th day. Cell data were collected uniformly, and analyzed with GraphPad prisim5. Dose curves were fitted, and IC50 values of the assay compounds were obtained.

[2] = Pharmacokinetic study in rats; assay type: in vivo, SD rats; conditions: rat; for AUC(0-inf) / Cmax / Tmax / clearance / half-life / MRT inf: male, SD, plasma; for MRT inf: read-out: MRT0-∞
Method: Six SPF SD rats, male, weighing 180-220 g, were randomly divided into 2 groups with 3 rats in each group. The compounds of the present disclosure were administered by oral gavage (PO) and intravenous injection (IV), respectively, and the assay compounds were formulated with a vehicle (5% DMSO+10% Solutol+85% pH 4.65 Acetate buffer).
Dosage: 1 mg/kg for intravenous injection and 2 mg/kg for oral administration.
(§2) Dosing volume: 5 mL/kg for intravenous injection and 10 mL/kg for oral administration.
(§3) The oral administration group was fasted overnight (10-14 h) before the assay, and drank water freely. After 4 hours of administration, they were fed uniformly. They were weighed before administration, and the dosage was calculated according to the body weight.
Intravenous administration: 0.083, 0.25, 0.5, 1, 2, 4, 6, 8, 10 and 24 h after administration;
Oral gavage administration: 0.25, 0.5, 1, 2, 4, 6, 8, 10, 12 and 24 h after administration;
(§4) Blood was collected from the jugular vein of rats at the above set time points, about 0.2 mL each time. The blood was anticoagulated with heparin sodium, placed on ice after collection, and centrifuged within 1 hour to separate the plasma (centrifugation conditions: 6800 g, 6 minutes, 2-8° C.). Plasma samples were stored in a −80° C. freezer prior to analysis.
The concentration of each compound in rat plasma was determined by LC/MS/MS method.
(§5) Through the plasma drug concentration data at different time points, pharmacokinetic parameters were calculated using Phoenix WinNonlin 7.0, thereby providing parameters such as AUC0-t, AUC0-∞, MRT0-∞, Cmax, Tmax, and T1/2 and mean and standard deviation thereof.

WSU-DLCL2 cells = test: Cell proliferation assay, WSU-DLCL2; assay type: cell-based; conditions: Homo sapiens
Method: as §1

Pfeiffer cells = test: Cell proliferation assay, Pfeiffer; assay type: cell-based; conditions: Homo sapiens, cultured to the 9th day, read-out: Anti-proliferation IC50
Method: as §1

[3] = Pharmacokinetic study in canine; assay type: in vivo, Beagle dogs; conditions: Beagle dog; for MRT inf: read-out: MRT0-∞
Method: Six ordinary Beagle dogs, male, weighing 10-12 kg, were randomly divided into 2 groups with 3 dogs in each group. The compounds of the present disclosure were administered by oral gavage (PO) and intravenous injection (IV), respectively, and the assay compounds were formulated with the corresponding vehicles.
Dosage: 1 mg/kg for intravenous injection and 5 mg/kg for oral administration.
as §2
as §3, with “weight. 2. Blood collection time point and sample processing:” for “weight.”
Intravenous administration: 0.083, 0.25, 0.5, 1, 2, 4, 8, 12 and 24 h after administration;
Oral gavage administration: 0.25, 0.5, 1, 2, 4, 6, 8, 12 and 24 h after administration;
as §4, with “veins” for “jugular vein”, “extremities,” for “rats at the above set time points,”, “0.5-1” for “0.2”
The concentration of each compound in canine plasma was determined by LC/MS/MS method.
as §5

[4] = tested on: Karpas 422 human B-cell lymphoma cells; test: Mouse Karpas422 CDX model, tumor growth; assay type: in vivo, balb/c nude mice; conditions: Karpas422 CDX mice; for tumor growth inhibition (TGI %), Day 11 after administration / tumor growth inhibition (TGI %), Day 21 after administration: intragastric
Method: Female balb/c nude mice aged 6-8 weeks were selected and housed under SPF conditions (i.e., 20-22° C.; 40-70% relative humidity) in individual ventilated cages at constant temperature and humidity. There were 5 or fewer animals in each cage. Animals had access to dry pelleted food sterilized by irradiation and sterile drinking water. Karpas 422 human B-cell lymphoma cells were cultured in RPMI-1640 (Gibco, product No. 31800022) containing 15% fetal bovine serum (FBS, Gibco, product No. 10099141) and 0.1% penicillin/streptomycin solution (P/S). The cells were cultured in a sterile incubator at a temperature of 37° C., a relative humidity of 95%, and 5% CO2. Karpas 422 cells cultured in vitro were maintained at a concentration between 0.5-2×10^6 cells/mL cells in suspension culture and passaged at a 1:3 dilution every 2-4 days. To establish the xenograft model, cells were collected, resuspended in PBS, mixed 1:1 by volume with Matrigel (BD) at a concentration of 5×10^7 cells/mL, and then injected subcutaneously into the right side of balb/c nude mice (Vital River) with 5×10^6 cells per animal. When tumors grew to about 150 mm^3, mice were divided into groups with 6 mice in each group. The mice were administered intragastrically, and the tumor size and mouse body weight were measured twice a week. The two largest diameters of the transplanted tumor, width (W) and length (L), were manually measured with a vernier caliper, and the tumor volume was estimated using the formula: 0.5×L×W^2. After the assay, the mice were euthanized.
The assay compounds were prepared as a suspension in pure water containing 0.5% HPMC+0.5% Tween 80 as a solvent. The dosing volume was 10 mL/kg.
In this study, changes in mouse tumor volume and relative changes in mouse body weight were assayed, and the results were shown in FIGS. 1 and 2.

[5] = HeLa cells, 3 days, H3K27me3 level by Western blot
[6] = KARPAS-422, Karpas422 cells, cultured to the 14th day, read-out: Anti-proliferation IC50
[7] = WSUDLCL2, WSU-DLCL2 cells, cultured to the 9th day, read-out: Anti-proliferation IC50

| AUC(0-inf) ([2]; IV, 1 mg/kg) [ng·h/mL] | Cmax ([2]; IV, 1 mg/kg) [ng/mL] | Tmax ([2]; IV, 1 mg/kg) [h] | clearance ([2]; IV, 1 mg/kg) [mL/min/kg] | half-life ([2]; IV, 1 mg/kg) [h] | MRT inf ([2]; IV, 1 mg/kg) [h] | AUC(0-inf) ([2]; PO, 2 mg/kg) [ng·h/mL] | Cmax ([2]; PO, 2 mg/kg) [ng/mL] | Tmax ([2]; PO, 2 mg/kg) [h] | half-life ([2]; PO, 2 mg/kg) [h] | MRT inf ([2]; PO, 2 mg/kg) [h] | F ([2]; PO, 2 mg/kg) [%] | IC50 [1, 5] [nM] | IC50 (Karpas422 cells; [6]) [nM] | SMILES | IC50 (Pfeiffer cells) [nM] | IC50 (WSU-DLCL2 cells; [7]) [nM] | also measured |
| --- | --- | --- | --- | --- | --- | --- | --- | --- | --- | --- | --- | --- | --- | --- | --- | --- | --- |
| 1140 | 1180 | 0.08 | 14.8 | 1.98 | 1.4 | 1890 | 369 | 1.5 | 1.68 | 3.55 | 82.62 | 32.7 | 99.3 | Fc1ccc2c(c1CNc1ncc(OCC3CCOC3)c3nncn13)CCO2 (stereo not shown) [HJM-102] | 47.4 | 25.1 | – |
| 1980 | 1360 | 0.08 | 8.47 | 2.7 | 2.37 | 3470 | 586 | 3.33 | 2.21 | 4.43 | 89.41 | 52.7 | 102 | Fc1ccc2c(c1CNc1ncc(OCC3COC3)c3nncn13)CCO2 [HJM-104] | 81.6 | 29.6 | F ([3]; PO, 5 mg/kg): 102.43%; AUC(0-inf) ([3]; male, plasma, IV, 1 mg/kg): 3230 ng·h/mL; Cmax ([3]; male, plasma, IV, 1 mg/kg): 864 ng/mL; Tmax ([3]; male, plasma, IV, 1 mg/kg): 0.08 h; clearance ([3]; male, plasma, IV, 1 mg/kg): 5.9 mL/min/kg; half-life ([3]; male, plasma, IV, 1 mg/kg): 1.67 h; MRT inf ([3]; male, plasma, IV, 1 mg/kg): 2.86 h; AUC(0-inf) ([3]; male, plasma, PO, 5 mg/kg): 16500 ng·h/mL; Cmax ([3]; male, plasma, PO, 5 mg/kg): 3380 ng/mL; Tmax ([3]; male, plasma, PO, 5 mg/kg): 1 h; half-life ([3]; male, plasma, PO, 5 mg/kg): 2.09 h; MRT inf ([3]; male, plasma, PO, 5 mg/kg): 3.53 h; tumor growth inhibition (TGI %), Day 11 after administration ([4]; 30 mg/kg): 39.4%; tumor growth inhibition (TGI %), Day 21 after administration ([4]; 30 mg/kg): 93.29%; tumor growth inhibition (TGI %), Day 11 after administration ([4]; 100 mg/kg): 88.9%; tumor growth inhibition (TGI %), Day 21 after administration ([4]; 100 mg/kg): 111.9%; effect on tumor growth (FIG. 1) ([4]; different dosages): complete tumor disappearance |

| SMILES | AUC(0-inf) ([2]; IV, 1 mg/kg) [ng·h/mL] | Cmax ([2]; IV, 1 mg/kg) [ng/mL] | Tmax ([2]; IV, 1 mg/kg) [h] | clearance ([2]; IV, 1 mg/kg) [mL/min/kg] | half-life ([2]; IV, 1 mg/kg) [h] | MRT inf ([2]; IV, 1 mg/kg) [h] | AUC(0-inf) ([2]; PO, 2 mg/kg) [ng·h/mL] | Cmax ([2]; PO, 2 mg/kg) [ng/mL] | Tmax ([2]; PO, 2 mg/kg) [h] | half-life ([2]; PO, 2 mg/kg) [h] | MRT inf ([2]; PO, 2 mg/kg) [h] | F ([2]; PO, 2 mg/kg) [%] | IC50 [1, 5] [nM] | IC50 (Karpas422 cells; [6]) [nM] | IC50 (Pfeiffer cells) [nM] | IC50 (WSU-DLCL2 cells; [7]) [nM] | also measured |
| --- | --- | --- | --- | --- | --- | --- | --- | --- | --- | --- | --- | --- | --- | --- | --- | --- | --- |
| O=C1CCCN1c1cnc(NCc2c(F)ccc3c2CCO3)n2cnnc12 [HJM-067] | 695 | 946 | 0.08 | 24.1 | 3 | 0.8 | 846 | 306 | 0.83 | 3.03 | 2.7 | 60.72 | – | – | – | – | IC50 ([1]; HeLa): 21.1 nM; IC50 (Karpas422 cells; KARPAS-422, read-out: Anti-proliferation IC50): 51 nM; IC50 (WSU-DLCL2 cells; WSUDLCL2, read-out: Anti-proliferation IC50): 29.4 nM |
